# “And” between values parts separate entries of the source, which are not always exact repeats. Equal entries are not always repeated. Toxic doses and inconclusive results are not listed.
# Test system: CD2F1 mice, intracerebral L1210 leukemia, survival T/C
# Experiment: NCI In Vivo Anticancer Drug Screen. Data for tumor model L1210 Leukemia (intracerebral) in CD2F1 (CDF1) mice
# Settings: higher = longer survival
# Protocol: The antitumor activity of compounds was measured in mice bearing transplantable tumors. Survival or tumor size were measured and the results are expressed as the measurement made in the treated group (T) divided by the measurement made in the vehicle treated control group (C). The tumor model used in this assay is L1210 Leukemia (intracerebral) in CD2F1 (CDF1) mice
# [1] = endpoint: median survival time, dose: 16.0 mg/kg/injection, schedule: Q01DX005 (ip), vehicle: saline with Tween-80
# [2] = endpoint: median survival time, dose: 32.0 mg/kg/injection, schedule: Q01DX005 (ip), vehicle: saline with Tween-80
# [3] = endpoint: median survival time, dose: 128.0 mg/kg/injection, schedule: Q01DX005 (ip), vehicle: saline with Tween-80
# [4] = endpoint: median survival time, dose: 4.0 mg/kg/injection, schedule: Q01DX005 (ip), vehicle: saline
# [5] = endpoint: median survival time, dose: 8.0 mg/kg/injection, schedule: Q01DX005 (ip), vehicle: saline
# [6] = endpoint: median survival time, dose: 16.0 mg/kg/injection, schedule: Q01DX005 (ip), vehicle: saline
# [7] = endpoint: median survival time, dose: 32.0 mg/kg/injection, schedule: Q01DX005 (ip), vehicle: saline
# [8] = endpoint: median survival time, dose: 4.0 mg/kg/injection, schedule: Q01DX005 (ip), vehicle: suspension in saline
# [9] = endpoint: median survival time, dose: 8.0 mg/kg/injection, schedule: Q01DX005 (ip), vehicle: suspension in saline
# [10] = endpoint: median survival time, dose: 16.0 mg/kg/injection, schedule: Q01DX005 (ip), vehicle: suspension in saline
# [11] = endpoint: median survival time, dose: 32.0 mg/kg/injection, schedule: Q01DX005 (ip), vehicle: suspension in saline
# [12] = endpoint: mean survival time, dose: 25.0 mg/kg/injection, schedule: Q01DX009 (ip), vehicle: saline
# [13] = endpoint: mean survival time, dose: 50.0 mg/kg/injection, schedule: Q01DX009 (ip), vehicle: saline
# [14] = endpoint: mean survival time, dose: 100.0 mg/kg/injection, schedule: Q01DX009 (ip), vehicle: saline
# [15] = endpoint: mean survival time, dose: 200.0 mg/kg/injection, schedule: Q01DX009 (ip), vehicle: saline
compound,measurement,setting,value
Nc1nc2c(c(=O)[nH]1)N(C=O)C(CNc1ccc(C(=O)N[C@@H](CCC(=O)O)C(=O)O)cc1)CN2 (stereo partly drawn),T/C,"endpoint: median survival time, dose: 128.0 mg/kg/injection, schedule: Q01DX005 (ip), vehicle: saline",96 % of control and 106 % of control
same,T/C,"endpoint: median survival time, dose: 256.0 mg/kg/injection, schedule: Q01DX005 (ip), vehicle: saline",95 % of control and 108 % of control
same,T/C,"endpoint: median survival time, dose: 512.0 mg/kg/injection, schedule: Q01DX005 (ip), vehicle: saline",92 % of control and 96 % of control
CN(C)N=Nc1ccc(C(N)=O)cc1,T/C,"endpoint: median survival time, dose: 8.0 mg/kg/injection, schedule: Q01DX005 (ip), vehicle: saline with Tween-80",104 % of control
same,T/C,[1],113 % of control
same,T/C,[2],121 % of control
same,T/C,[3],106 % of control
N#[N+]c1nc[nH]c1C(N)=O,T/C,"endpoint: median survival time, dose: 2.0 mg/kg/injection, schedule: Q01DX005 (ip), vehicle: saline",112 % of control
same,T/C,[4],105 % of control
same,T/C,[5],107 % of control
same,T/C,[6],105 % of control
same,T/C,[7],105 % of control
same,T/C,"endpoint: median survival time, dose: 64.0 mg/kg/injection, schedule: Q01DX005 (ip), vehicle: saline",101 % of control
O=C1c2c(O)ccc(O)c2C(=O)c2c(NCCNCCO)ccc(NCCNCCO)c21,T/C,"endpoint: median survival time, dose: 0.5 mg/kg/injection, schedule: Q01DX009 (ip), vehicle: saline with Tween-80",122 % of control and 110 % of control
same,T/C,"endpoint: median survival time, dose: 1.0 mg/kg/injection, schedule: Q01DX009 (ip), vehicle: saline with Tween-80",120 % of control
same,T/C,"endpoint: median survival time, dose: 2.0 mg/kg/injection, schedule: Q01DX009 (ip), vehicle: saline with Tween-80",121 % of control
same,T/C,"endpoint: median survival time, dose: 4.0 mg/kg/injection, schedule: Q01DX009 (ip), vehicle: saline with Tween-80",105 % of control and 106 % of control
CCCN(C)/N=N/c1nc[nH]c1C(N)=O,T/C,[8],105 % of control
same,T/C,[9],109 % of control
same,T/C,[10],112 % of control
same,T/C,[11],118 % of control
same,T/C,"endpoint: median survival time, dose: 64.0 mg/kg/injection, schedule: Q01DX005 (ip), vehicle: suspension in saline",124 % of control
CCC1=C(c2ccc(OC)cc2)CCC(C(=O)O)C1C (stereo not drawn),T/C,[4],103 % of control
same,T/C,[8],102 % of control
same,T/C,[5],114 % of control
same,T/C,[9],102 % of control
same,T/C,[6],112 % of control
same,T/C,[10],96 % of control
same,T/C,[7],102 % of control
same,T/C,[11],104 % of control
CN(CCO)C1=C(N2CC2)C(=O)C(N(C)CCO)=C(N2CC2)C1=O,T/C,"endpoint: mean survival time, dose: 0.5 mg/kg/injection, schedule: Q01DX009 (ip), vehicle: saline",106 % of control and 109 % of control
same,T/C,"endpoint: mean survival time, dose: 1.0 mg/kg/injection, schedule: Q01DX009 (ip), vehicle: saline",111 % of control
same,T/C,"endpoint: mean survival time, dose: 4.0 mg/kg/injection, schedule: Q01DX009 (ip), vehicle: saline",101 % of control
CN(C)/N=N/c1nc[nH]c1C(N)=O,T/C,"endpoint: mean survival time, dose: 20.0 mg/kg/injection, schedule: Q01DX007 (ip), vehicle: DMSO",100 % of control
same,T/C,"endpoint: mean survival time, dose: 20.0 mg/kg/injection, schedule: Q01DX007 (ip), vehicle: other",106 % of control
same,T/C,[12],113 % of control
same,T/C,"endpoint: mean survival time, dose: 40.0 mg/kg/injection, schedule: Q01DX007 (ip), vehicle: DMSO",103 % of control
same,T/C,"endpoint: mean survival time, dose: 40.0 mg/kg/injection, schedule: Q01DX007 (ip), vehicle: other",106 % of control
same,T/C,[13],111 % of control
same,T/C,"endpoint: mean survival time, dose: 80.0 mg/kg/injection, schedule: Q01DX007 (ip), vehicle: DMSO",116 % of control
same,T/C,"endpoint: mean survival time, dose: 80.0 mg/kg/injection, schedule: Q01DX007 (ip), vehicle: other",107 % of control
same,T/C,[14],111 % of control
same,T/C,"endpoint: mean survival time, dose: 160.0 mg/kg/injection, schedule: Q01DX007 (ip), vehicle: DMSO",121 % of control
same,T/C,"endpoint: mean survival time, dose: 160.0 mg/kg/injection, schedule: Q01DX007 (ip), vehicle: other",121 % of control
same,T/C,"endpoint: mean survival time, dose: 320.0 mg/kg/injection, schedule: Q01DX007 (ip), vehicle: DMSO",103 % of control
same,T/C,"endpoint: mean survival time, dose: 320.0 mg/kg/injection, schedule: Q01DX007 (ip), vehicle: other",112 % of control
same,T/C,[1],104 % of control
same,T/C,[2],120 % of control
same,T/C,"endpoint: median survival time, dose: 64.0 mg/kg/injection, schedule: Q01DX005 (ip), vehicle: saline with Tween-80",110 % of control
same,T/C,[3],113 % of control
COC(=O)c1ccccc1N=NN(C)C,T/C,"endpoint: mean survival time, dose: 2.5 mg/kg/injection, schedule: Q01DX007 (ip), vehicle: other",91 % of control
same,T/C,"endpoint: mean survival time, dose: 5.0 mg/kg/injection, schedule: Q01DX007 (ip), vehicle: other",100 % of control
same,T/C,"endpoint: mean survival time, dose: 10.0 mg/kg/injection, schedule: Q01DX007 (ip), vehicle: other",106 % of control
N=[N+]=CC(=O)CCC(NC(=O)C(CCC(=O)C=[N+]=N)NC(=O)CCC(N)C(=O)O)C(=O)O (stereo not drawn),T/C,"endpoint: median survival time, dose: 0.05 mg/kg/injection, schedule: Q01DX005 (ip), vehicle: Klucel (hydroxypropylcellulose) (HPC)",95 % of control and 100 % of control
same,T/C,"endpoint: median survival time, dose: 0.1 mg/kg/injection, schedule: Q01DX005 (ip), vehicle: Klucel (hydroxypropylcellulose) (HPC)",93 % of control and 100 % of control
same,T/C,"endpoint: median survival time, dose: 0.2 mg/kg/injection, schedule: Q01DX005 (ip), vehicle: Klucel (hydroxypropylcellulose) (HPC)",96 % of control and 102 % of control
same,T/C,"endpoint: median survival time, dose: 0.4 mg/kg/injection, schedule: Q01DX005 (ip), vehicle: Klucel (hydroxypropylcellulose) (HPC)",94 % of control and 100 % of control
CN(C)N=Nc1ccccc1Cl,T/C,"endpoint: median survival time, dose: 8.0 mg/kg/injection, schedule: Q01DX005 (ip), vehicle: saline + alcohol",98 % of control
same,T/C,"endpoint: median survival time, dose: 16.0 mg/kg/injection, schedule: Q01DX005 (ip), vehicle: saline + alcohol",106 % of control
same,T/C,"endpoint: median survival time, dose: 32.0 mg/kg/injection, schedule: Q01DX005 (ip), vehicle: saline + alcohol",102 % of control
same,T/C,"endpoint: median survival time, dose: 64.0 mg/kg/injection, schedule: Q01DX005 (ip), vehicle: saline + alcohol",102 % of control
same,T/C,"endpoint: median survival time, dose: 128.0 mg/kg/injection, schedule: Q01DX005 (ip), vehicle: saline + alcohol",105 % of control
N=C(N)SCc1c2ccccc2c(CSC(=N)N)c2ccccc12,T/C,[13],103 % of control
same,T/C,[14],124 % of control
same,T/C,[15],88 % of control
same,T/C,"endpoint: median survival time, dose: 2.5 mg/kg/injection, schedule: Q01DX005 (ip), vehicle: Klucel (hydroxypropylcellulose) (HPC)",93 % of control and 98 % of control
same,T/C,"endpoint: median survival time, dose: 5.0 mg/kg/injection, schedule: Q01DX005 (ip), vehicle: Klucel (hydroxypropylcellulose) (HPC)",97 % of control and 112 % of control
same,T/C,"endpoint: median survival time, dose: 10.0 mg/kg/injection, schedule: Q01DX005 (ip), vehicle: Klucel (hydroxypropylcellulose) (HPC)",103 % of control and 115 % of control
same,T/C,"endpoint: median survival time, dose: 20.0 mg/kg/injection, schedule: Q01DX005 (ip), vehicle: Klucel (hydroxypropylcellulose) (HPC)",103 % of control and 112 % of control
O=C1C=CN(C2OC(CO)C(O)C2O)C(=O)C1 (stereo not drawn),T/C,"endpoint: mean survival time, dose: 33.0 mg/kg/injection, schedule: Q01DX009 (ip), vehicle: saline",150 % of control
same,T/C,"endpoint: median survival time, dose: 100.0 mg/kg/injection, schedule: Q01DX009 (ip), vehicle: saline",116 % of control
same,T/C,"endpoint: median survival time, dose: 200.0 mg/kg/injection, schedule: Q01DX009 (ip), vehicle: saline",105 % of control
same,T/C,"endpoint: median survival time, dose: 400.0 mg/kg/injection, schedule: Q01DX009 (ip), vehicle: saline",107 % of control
CC1CC(C)/C(=N/NC(N)=S)C(C(O)CC2CC(=O)NC(=O)C2)C1 (stereo not drawn),T/C,[12],101 % of control
same,T/C,[13],100 % of control
same,T/C,[14],105 % of control
same,T/C,[15],106 % of control
same,T/C,"endpoint: mean survival time, dose: 400.0 mg/kg/injection, schedule: Q01DX009 (ip), vehicle: saline",101 % of control
COc1cc([C@@H]2c3cc4c(cc3[C@@H](OC3OC5CO[C@@H](c6cccs6)OC5C(O)C3O)[C@H]3COC(=O)[C@H]23)OCO4)cc(OC)c1O (stereo partly drawn),T/C,"endpoint: median survival time, dose: 0.25 mg/kg/injection, schedule: Q01DX009 (ip), vehicle: saline",101 % of control and 108 % of control
same,T/C,"endpoint: median survival time, dose: 0.5 mg/kg/injection, schedule: Q01DX009 (ip), vehicle: saline",108 % of control and 111 % of control
same,T/C,"endpoint: median survival time, dose: 1.0 mg/kg/injection, schedule: Q01DX009 (ip), vehicle: saline",111 % of control and 116 % of control
same,T/C,"endpoint: median survival time, dose: 2.0 mg/kg/injection, schedule: Q01DX009 (ip), vehicle: saline",124 % of control and 114 % of control
same,T/C,"endpoint: median survival time, dose: 4.0 mg/kg/injection, schedule: Q01DX009 (ip), vehicle: saline",122 % of control and 104 % of control
same,T/C,"endpoint: median survival time, dose: 8.0 mg/kg/injection, schedule: Q01DX009 (ip), vehicle: saline",88 % of control
NC(=O)CNC1=C(N2CC2)C(=O)C(NCC(N)=O)=C(N2CC2)C1=O,T/C,"endpoint: mean survival time, dose: 2.5 mg/kg/injection, schedule: Q01DX009 (ip), vehicle: saline",101 % of control and 116 % of control
same,T/C,"endpoint: mean survival time, dose: 5.0 mg/kg/injection, schedule: Q01DX009 (ip), vehicle: saline",110 % of control and 113 % of control
same,T/C,"endpoint: mean survival time, dose: 10.0 mg/kg/injection, schedule: Q01DX009 (ip), vehicle: saline",105 % of control and 116 % of control
same,T/C,"endpoint: mean survival time, dose: 15.0 mg/kg/injection, schedule: Q01DX009 (ip), vehicle: saline",101 % of control and 113 % of control
